Test results published in patent publication US20090176776A1, “SMALL MOLECULE INHIBITORS OF HIV-1 CAPSID ASSEMBLY” (UNIVERSITY OF ALABAMA AT BIRMINGHAM, priority 2005, published 2009).
Blank lines part the entries; values can stand above or below the compound they belong to.

Tests used:
[1] = molecular target: T1, recombinant HIV-1 capsid protein (CA) (Human immunodeficiency virus type 1 group M subtype B, UniProt P12493); test: Turbidity based HIV-1 capsid assembly assay; type: biochemical; conditions: initial assembly rate by turbidity; twofold dilutions over a 128 fold range; 30 μM CA, 2.25 M NaCl
T1 construct: recombinant HIV-1 capsid protein (CA); made in house
Method: The kinetics can be followed by monitoring the increase of turbidity using a spectrophotometer. The IC50 of the chemical compound tested is determined by titration. As the C-domain inhibits capsid assembly by forming CA-C-domain heterodimers, the effect of added C-terminal domain on the rate of assembly was evaluated by plotting the rate of assembly versus C-terminal domain concentration.
Soluble HIV-1 capsid protein can be triggered to assemble into tubes similar in diameter and morphology to intact cores by dilution into high iconic strength buffer. The kinetics of assembly can be followed by monitoring the increase in turbidity using a spectrophotometer (Lanham et al., J. Virol., 76:6900, 2002). This assembly assay was adapted to a 96-well, microplate format to allow for medium-throughput screening of compounds by measuring turbidity in a Nepeloskan Ascent plate reader (Thermo Electron Corp., UK). A DIVERSet™ library of 10,000 low molecular weight, “drug-like” compounds was purchased from ChemBridge Corp. (San Diego, Calif.). This library was selected for its potential bioavailability and application based on a pharmacophore diversity analysis. The average molecular weight of the compounds is 347 g/mol, the range being 200-596 g/mol. The compounds came plated in 96-well plates and solubilized in DMSO at 5 mgs/mL.
Turbidity based assay. A 1.5 μL aliquot of compound was diluted 90-fold into 50 mM Na2HPO4, […] buffer, pH 8 in an optically clear 96-well plate. The plate containing compounds and salt was read to check for compound solubility and to serve as a background reading for the assay. To initiate the assembly reaction, 15 μL of […] stock (in 50 mM Na2HPO4 pH 8) of recombinant HIV-1 capsid protein (CA), purified as described (Lanman et al., J. Virol., 76:6900, 2002), was added to each well of the 96-well plate using a multi-channel pipettor. […] Furthermore, the halftime of the assembly reaction is ˜5 minutes so reading the plate in thirds prevented loss of initial rate data. Therefore, CA was added to the first 4 lanes, the reactions followed for ten minutes, reading was paused, CA was then added to the next four lanes and the process repeated. Instrument settings are as follows: PMT gain of 500 V, lamp at 10V, and integration time of 60 ms. The data were exported to a custom designed Excel spreadsheet that allowed simultaneous plotting of kinetic curves.
Recombinant CA protein was purified as previously described and stored at 300 μM at −80° C. A turbidity based assembly assay, described above, was adapted to a 96-well, microplate format to allow for medium-throughput screening of compounds in a Nepheloskan Ascent plate reader (Thermo Electron Corp., UK). A 1.5 μL aliquot of compound or DMSO was diluted 90-fold into 50 mM Na2HPO4, 2.25 M NaCl buffer, pH 8 in an optically clear 96-well plate. To initiate the assembly reaction, 15 μL of the 300 μM stock (in 50 mM Na2HPO4 pH 8) of recombinant HIV-1 capsid protein (CA), was added to each well of the 96-well plate using a multi-channel pipettor.

HIV-1YU2 = test: Anti-HIV assay (multiple round), luciferase expression in Luc-M7 cells; type: cell-based; conditions: Luc-M7 cells infected with HIV-1YU2, 6 days, Bright-Glo
Method: (§1) Anti-HIV Assays (Multiple Round). The inhibitory effects of the tested compounds on HIV-1YU2 replication were determined by the level of luciferase expression after 6 days of infection using Bright-Glo assay (Promega). An amount of 1.5×10^4 Luc-M7 (a gift from Ned Landau) cells per ml were infected with HIV-1YU2 at a multiplicity of infection (MOI) of 3. The HIV-1 infected ([…] compound) or mock-infected (0-300 μM compound) Luc-M7 cells were placed in 96-well culture plates (100 μl/well) with 100 μl of various concentrations of the compounds with 20 μg/ml DEAE Dextran in triplicate and incubated at 37° C. under 5% CO2 at 100% humidity. After 6 days, cell viability was quantified by Cell-Titer Glo assay (Promega). […] On day 5 cell viability was determined in the mock-infected cells. FIGS. 12-18 show the anti-HIV assays for the examples of chemical compounds used according to the invention. After in-vitro assay, the chemical compounds in FIGS. 12-18 were selected for screening for cell viability and toxicity. Jurkat cells assay was used as screening assay. […] After five days, GFP expression was read. Cell viability was monitored with Alamar Blue assay. Luc M7 assay was designed to measure inhibitory activity of the chemical compounds to viral replication. After infection of cells with YU2 virus, plate cells in 96-well plate in the presence of six concentration of compounds in DMSO. At day 6, the number of cells in wells were read with Cell Titer Glo kit or by counting the number of cells infected with Bright Glo kit. 293T cells assay was designed to determine the toxicity. 293T cells were transfected with NL43. After four hours, transfected cells were plated in 96-well plate in DMSO and 2 μM Indinavir. 72 hours later, viral supernatant was collected and plated on J[…].

Luc-M7 cells = test: Cell viability of Luc-M7 cells (Cell-Titer Glo); type: cell-based; set-up: unit: μM; conditions: mock-infected Luc-M7 cells, 6 days
Method: as §1

[2] = MTS score (Table 1; method not described); type: cell-based; conditions: for MTS AVG 4 (No Effect): average of the MTS scores at 10, 30 and 100 μM; for MTS 10 μM: score at nominal 10 μM; for MTS 10 μM / MTS 30 μM / MTS 100 μM: 4 = No Effect; for MTS 30 μM: score at nominal 30 μM; for MTS 100 μM: score at nominal 100 μM

Structure (SMILES): CC(=NNC(=O)C(O)c1ccccc1)c1ccc2c(c1)CCCC2 (stereo not drawn) [Compound 6]
IC50 [1]: 9 µM | IC50 (HIV-1YU2): 15.4 µM | TC50 (Luc-M7 cells): 36.8 | MTS AVG 4 (No Effect) [2]: 3.000 | MTS 10 μM [2]: 4 | MTS 30 μM [2]: 3 | MTS 100 μM [2]: 2

Structure (SMILES): CC(C)(C)c1ccc(OCC(=O)NN=Cc2ccc(O)c([N+](=O)[O-])c2)cc1 [Compound 38]
IC50 [1]: 35 µM | MTS AVG 4 (No Effect) [2]: 3.333 | MTS 10 μM [2]: 4 | MTS 30 μM [2]: 3 | MTS 100 μM [2]: 3

Structure (SMILES): CC(C)(C)c1ccc(OCCN2CCOCC2)cc1 [Compound 60]
IC50 [1]: 75 µM | IC50 (HIV-1YU2): 6.98 µM | TC50 (Luc-M7 cells): 125.3 | MTS AVG 4 (No Effect) [2]: 3.333 | MTS 10 μM [2]: 4 | MTS 30 μM [2]: 4 | MTS 100 μM [2]: 2

Structure (SMILES): Cc1cc(F)ccc1NCc1ccccn1 [Compound 16]
IC50 [1]: 95 µM | IC50 (HIV-1YU2): 17.8 µM | TC50 (Luc-M7 cells): 66.5 | MTS AVG 4 (No Effect) [2]: 3.000 | MTS 10 μM [2]: 4 | MTS 30 μM [2]: 4 | MTS 100 μM [2]: 1

Structure (SMILES): Cc1ccc(NCC(=O)NN=Cc2c(Br)cc(Br)c(O)c2Br)cc1 [Compound 17]
IC50 [1]: 11 µM | MTS AVG 4 (No Effect) [2]: 2.333 | MTS 10 μM [2]: 4 | MTS 30 μM [2]: 1 | MTS 100 μM [2]: 2

Structure (SMILES): O=C(COc1ccc2ccccc2c1)NN=Cc1cc(O)c(O)c(Br)c1 [Compound 53]
IC50 [1]: 33 µM | MTS AVG 4 (No Effect) [2]: 2.000 | MTS 10 μM [2]: 4 | MTS 30 μM [2]: 1 | MTS 100 μM [2]: 1

Structure (SMILES): COc1ccc(OCC(=O)NN=Cc2cc(O)c(O)c(Br)c2)c(Br)c1 [Compound 71]
IC50 [1]: 24 µM | MTS AVG 4 (No Effect) [2]: 2.333 | MTS 10 μM [2]: 4 | MTS 30 μM [2]: 2 | MTS 100 μM [2]: 1

Structure (SMILES): O=C(NN=Cc1c(Br)cc(Br)c(O)c1Br)c1ccccc1[N+](=O)[O-] [Compound 23]
IC50 [1]: 12 µM | MTS AVG 4 (No Effect) [2]: 3.667 | MTS 10 μM [2]: 4 | MTS 30 μM [2]: 4 | MTS 100 μM [2]: 3

Structure (SMILES): Cc1ccc(C(C)C)c(OCC(=O)NN=Cc2ccc(C(=O)O)cc2)c1 [Compound 65]
IC50 [1]: 14 µM | MTS AVG 4 (No Effect) [2]: 3.667 | MTS 10 μM [2]: 4 | MTS 30 μM [2]: 4 | MTS 100 μM [2]: 3

MTS AVG 4 (No Effect) [2]: 2.000 | MTS 10 μM [2]: 4 | MTS 30 μM [2]: 1 | MTS 100 μM [2]: 1
Structure (SMILES): O=C(NN=Cc1cc(Cl)cc([N+](=O)[O-])c1O)c1ccc2c(c1)OCO2 [Compound 37]

Structure (SMILES): O=C(O)c1ccc2c(c1)C1C=CCC1C(c1cccc([N+](=O)[O-])c1)N2 (stereo not drawn) [Compound 59]
IC50 [1]: 22 µM | IC50 (HIV-1YU2): 4.5 µM | TC50 (Luc-M7 cells): 84.1 | MTS AVG 4 (No Effect) [2]: 4.000 | MTS 10 μM [2]: 4 | MTS 30 μM [2]: 4 | MTS 100 μM [2]: 4

Structure (SMILES): Cc1ccc(OCC(=O)NN=Cc2c(Br)cc(Br)c(O)c2Br)cc1 [Compound 3]
IC50 [1]: 7 µM | MTS AVG 4 (No Effect) [2]: 3.667 | MTS 10 μM [2]: 4 | MTS 30 μM [2]: 3 | MTS 100 μM [2]: 4

Structure (SMILES): Oc1ccc(C=NNc2cc(N3CCOCC3)nc(N3CCOCC3)n2)c(O)c1 [Compound 9]
IC50 [1]: 7 µM | MTS AVG 4 (No Effect) [2]: 2.000 | MTS 10 μM [2]: 4 | MTS 30 μM [2]: 1 | MTS 100 μM [2]: 1

Structure (SMILES): Nc1nc(-c2ccccc2Cl)cs1 [Compound 15]
IC50 [1]: 60 µM | IC50 (HIV-1YU2): 19.8 µM | TC50 (Luc-M7 cells): 58.9 | MTS AVG 4 (No Effect) [2]: 3.000 | MTS 10 μM [2]: 4 | MTS 30 μM [2]: 3 | MTS 100 μM [2]: 2

Structure (SMILES): O=C(O)c1ccc2c(c1)C1C=CCC1C(c1ccc([N+](=O)[O-])cc1)N2 (stereo not drawn) [Compound 41]
IC50 [1]: 18 µM | IC50 (HIV-1YU2): 2.1 µM | TC50 (Luc-M7 cells): 65.8 | MTS AVG 4 (No Effect) [2]: 3.667 | MTS 10 μM [2]: 4 | MTS 30 μM [2]: 4 | MTS 100 μM [2]: 3

Structure (SMILES): CCOC(=O)c1c(N2C(=O)C=CC2=O)sc2c1CCCC2 [Compound 8]
IC50 [1]: 4 µM | IC50 (HIV-1YU2): 13.3 µM | TC50 (Luc-M7 cells): 27.7 | MTS AVG 4 (No Effect) [2]: 3.667 | MTS 10 μM [2]: 4 | MTS 30 μM [2]: 4 | MTS 100 μM [2]: 3

Structure (SMILES): O=C1Nc2c(Br)cc(Br)cc2C1=NNC(=O)C(O)c1ccccc1 (stereo not drawn) [Compound 50]
IC50 [1]: 15 µM | MTS AVG 4 (No Effect) [2]: 2.333 | MTS 10 μM [2]: 4 | MTS 30 μM [2]: 2 | MTS 100 μM [2]: 1

Structure (SMILES): COc1c(O)ccc(C=NNC(=O)COc2cccc(C)c2)c1[N+](=O)[O-] [Compound 39]
IC50 [1]: 28 µM | MTS AVG 4 (No Effect) [2]: 2.333 | MTS 10 μM [2]: 4 | MTS 30 μM [2]: 2 | MTS 100 μM [2]: 1

Structure (SMILES): Cc1ccc(OCC(=O)NN=Cc2ccncc2)cc1 [Compound 56]
IC50 [1]: 40 µM | MTS AVG 4 (No Effect) [2]: 3.333 | MTS 10 μM [2]: 4 | MTS 30 μM [2]: 3 | MTS 100 μM [2]: 3
